The text below walks through data of patent US8476303B2, “N-aminopyrrolylmethyltetrahydropyridines as anti-cancer agents” (Florida A&M University Board of Trustees, priority 2011, dated 2013).

Common to all, as to assay type: cell-based
In one assay the test system is Ishikawa cells. Briefly: CELLTITER-GLO luminescent cell viability assay, Ishikawa. As to conditions: 72 h at 37° C. The procedure: (§1) The derivatives were examined for their cytotoxic effects on MCF-7 estrogen receptor-positive breast cancer cells, MDA-MB-231 estrogen receptor-negative breast cancer cell line, and Ishikawa cells, using the CELLTITER-GLO (CTG)® luminescent cell viability assay. All the compounds are tested in the three cell lines. Different concentration of compounds, ranging from about 0.01 nM to about 100,000 nM were delivered to 5×10^3 cells per well, which were then incubated for three days at 37° C., followed by the CTG assay.
(§2) Compounds Redda-GM-2-50, Redda-GM-2-55, and Redda-GM-2-58 were tested for their cytotoxic effects on MCF-7 estrogen receptor-positive breast cancer cells, MDA-MB-231 estrogen receptor-negative breast cancer cell line, and Ishikawa cells, using the CELLTITER-GLO® luminescent cell viability assay (Promega, Madison, Wis.) following the manufacturer's instruction.
(§3) CELLTITER-GLO® is a homogeneous method based on the quantification of ATP, which is an indicator of metabolically active cells. In this assay, the number of viable cells in culture is determined based on the quantification of ATP present, which signals the presence of metabolically active cells. Damaged cells are not detected as the ATP leaked from these cells is quickly consumed by ATPases that are also released upon damage). The amount of ATP is determined using a system based on luciferase and D-luciferin resulting in light generation.
(§4) The cell lines were plated in 13, 96 well plates at a density of 5000 cells/well in total volumes of 50 μL in phenol-red free medium and incubated for overnight. […]
(§5) Drug-exposed cells were incubated or 72 h at 37° C. in a 5% CO2 incubator, after which the plates were removed for CELLTITER-GLO® assay and equilibrated at room temperature for 30 min. […] Luminescence results were read on TriLux Luminometer. […] Data were expressed as percentage of untreated control (i.e. treatment value-blank/vehicle value blank), mean±SE for three replications.
On the technique in general: In ATP-based viability assays light output follows the ATP content of the culture.

The subject of assay [1] is MDA-MB-231 estrogen receptor-negative breast cancer cell line. The experiment in a line: CELLTITER-GLO luminescent cell viability assay, MDA-MB-231. As to conditions: MDA-MB-231 cells, 72 h at 37° C. The procedure: as §1, §2, §3, §4, §5
The test system of assay [2] is MCF-7 estrogen receptor-positive breast cancer cells. Briefly: CELLTITER-GLO luminescent cell viability assay, MCF-7. As to conditions: MCF-7 cells, 72 h at 37° C. As for the experimental part:
as §1, §2, §3, §4, §5

One may read the IC50 as the concentration that inhibits the measured activity by half. Low values mean greater potency in that assay, high ones weaker potency in that assay. For “3-((1H-pyrrol-1-yl)methyl)-1-(phenylsulfonimido)pyridinium Ylide [Redda-GM-2-50]”, the IC50 in the assay on Ishikawa cells was 28 µM; in assay [1] it was 44 µM; in assay [2], 47 µM.
Taken in the same sequence, the figures for “3-((1H-pyrrol-1-yl)methyl)-1-(4-methylphenylsulfonamido)pyridinium Ylide [Redda-GM-2-55]” were 78.5 µM, 83.6 µM and 31.8 µM.
For the substance “3-((1H-pyrrol-1-yl)methyl)-1-(4-methoxyphenylsulfonamido)pyridinium Ylide [Redda-GM-2-58]”, the IC50 in the assay on Ishikawa cells is 28 µM; in assay [1], 53 µM; in assay [2], 49 µM.
